Experimental data as given in ChEMBL document CHEMBL1926622, “Novel cyclohexyl-amides as potent antibacterials targeting bacterial type IIA topoisomerases” (Bioorg Med Chem Lett, 2011).
In brackets after ≈: the same amount, converted by molar mass. Activity calls are given as the source filed them. The calls are words filed in the database; no cut-off is given here.

Assays:
[1] = Inhibition of Escherichia coli DNA gyrase-mediated DNA replication using [3H]dATP by scintillation proximity assay
[2] = system: Staphylococcus aureus; test: Antibacterial activity against Staphylococcus aureus WCUH 29 after 18 to 24 hrs by broth microdilution technique; assay type: functional
[3] = target: Voltage-gated inwardly rectifying potassium channel KCNH2 (Homo sapiens, UniProt Q12809); test: Inhibition of human ERG by whole cell patch clamp assay
[4] = system: Streptococcus pneumoniae; test: Antibacterial activity against Streptococcus pneumoniae 1629 after 18 to 24 hrs by broth microdilution technique; assay type: functional
[5] = system: Haemophilus influenzae; test: Antibacterial activity against Haemophilus influenzae H128 after 18 to 24 hrs by broth microdilution technique; assay type: functional
[6] = Blood clearance in Sprague-Dawley rat at 2.9 mg/kg, iv; assay type: ADME, organism-based; design: dose 2.9 mg/kg, route intravenous
[7] = Volume of distribution at steady state in Sprague-Dawley rat at 2.9 mg/kg, iv; assay type: ADME, organism-based; design: dose 2.9 mg/kg, route intravenous; settings: in vivo, read-out: Vdss
[8] = AUC in cynomolgus monkey at 4.4 mg/kg, po; assay type: ADME, organism-based, Macaca fascicularis; design: dose 4.4 mg/kg, route oral; settings: plasma
[9] = system: Streptococcus pneumoniae; test: Antibacterial activity against Streptococcus pneumoniae 1629 infected in rat assessed as complete eradication of infection at 50 mg/kg, po after 48 hrs; assay type: functional, organism-based; design: dose 50 mg/kg
[10] = Volume of distribution at steady state in cynomolgus monkey at 2.7 mg/kg, iv; assay type: ADME, organism-based, Macaca fascicularis; design: dose 2.7 mg/kg, route intravenous; settings: in vivo, read-out: Vdss
[11] = system: Canis familiaris; test: Renal clearance in Beagle dog at 2.6 mg/kg, iv; assay type: ADME, organism-based, Canis lupus familiaris, Kidney; design: dose 2.6 mg/kg, route intravenous; settings: in vivo
[12] = system: Cynomolgus monkey; test: Renal clearance in cynomolgus monkey at 2.7 mg/kg, iv; assay type: ADME, organism-based, Macaca fascicularis, Kidney; design: dose 2.7 mg/kg, route intravenous; settings: in vivo
[13] = system: Canis familiaris; test: Hepatic blood flow in Beagle dog at 2.6 mg/kg, iv; assay type: ADME, organism-based, Canis lupus familiaris, Liver; design: dose 2.6 mg/kg, route intravenous; settings: in vivo
[14] = system: Cynomolgus monkey; test: Hepatic blood flow in cynomolgus monkey at 2.7 mg/kg, iv; assay type: ADME, organism-based, Macaca fascicularis, Liver; design: dose 2.7 mg/kg, route intravenous; settings: in vivo
[15] = system: Rattus norvegicus; test: Renal clearance in Sprague-Dawley rat at 2.9 mg/kg, iv; assay type: ADME, organism-based, Kidney; design: dose 2.9 mg/kg, route intravenous; settings: in vivo
[16] = Mean residence time in Beagle dog at 4.5 mg/kg, po; assay type: ADME, organism-based, Canis lupus familiaris; design: dose 4.5 mg/kg, route oral; settings: in vivo
[17] = Oral bioavailability in Sprague-Dawley rat at 4.6 mg/kg; assay type: ADME, organism-based; settings: in vivo
[18] = system: Liver; test: Intrinsic clearance in dog liver microsomes; assay type: ADME, Canis lupus familiaris, Microsome
[19] = Oral bioavailability in Beagle dog at 4.5 mg/kg; assay type: ADME, organism-based, Canis lupus familiaris; settings: in vivo
[20] = Drug metabolism in dog liver microsomes assessed as mono-oxidation metabolite formation; assay type: ADME, Canis lupus familiaris, Microsome
[21] = system: Liver microsomes; test: Intrinsic clearance in human liver microsomes; assay type: ADME, Microsome
[22] = AUC in Sprague-Dawley rat at 4.6 mg/kg, po; assay type: ADME, organism-based; design: dose 4.6 mg/kg, route oral; settings: plasma
[23] = Oral bioavailability in cynomolgus monkey at 4.4 mg/kg; assay type: ADME, organism-based, Macaca fascicularis; settings: in vivo
[24] = Mean residence time in cynomolgus monkey at 4.4 mg/kg, po; assay type: ADME, organism-based, Macaca fascicularis; design: dose 4.4 mg/kg, route oral; settings: in vivo
[25] = Plasma protein binding in monkey; assay type: ADME, cell-free, Macaca mulatta; settings: rhesus monkey, read-out: PPB (converted)
[26] = Mean residence time in Sprague-Dawley rat at 4.6 mg/kg, po; assay type: ADME, organism-based; design: dose 4.6 mg/kg, route oral; settings: in vivo
[27] = Drug metabolism in monkey liver microsomes assessed as mono-oxidation metabolite formation; assay type: ADME, Macaca mulatta, Microsome; settings: rhesus monkey
[28] = AUC in Beagle dog at 4.5 mg/kg, po; assay type: ADME, organism-based, Canis lupus familiaris; design: dose 4.5 mg/kg, route oral; settings: plasma
[29] = system: Liver microsomes; test: Drug metabolism in rat liver microsomes assessed as mono-oxidation metabolite formation; assay type: ADME, Microsome
[30] = Half life in cynomolgus monkey at 2.7 mg/kg, iv; assay type: ADME, organism-based, Macaca fascicularis; design: dose 2.7 mg/kg, route intravenous; settings: in vivo
[31] = Blood clearance in Beagle dog at 2.6 mg/kg, iv; assay type: ADME, organism-based, Canis lupus familiaris; design: dose 2.6 mg/kg, route intravenous
[32] = system: Rattus norvegicus; test: Hepatic blood flow in Sprague-Dawley rat at 2.9 mg/kg, iv; assay type: ADME, organism-based, Liver; design: dose 2.9 mg/kg, route intravenous; settings: in vivo
[33] = Plasma protein binding in human; assay type: ADME, cell-free; settings: read-out: PPB (converted)
[34] = Blood clearance in cynomolgus monkey at 2.7 mg/kg, iv; assay type: ADME, organism-based, Macaca fascicularis; design: dose 2.7 mg/kg, route intravenous
[35] = system: Streptococcus pneumoniae; test: Antibacterial activity against Streptococcus pneumoniae 1629 infected in rat assessed as log decrease in colony forming units per lung at 25 mg/kg, po after 48 hrs relative to untreated control; assay type: functional
[36] = Volume of distribution at steady state in Beagle dog at 2.6 mg/kg, iv; assay type: ADME, organism-based, Canis lupus familiaris; design: dose 2.6 mg/kg, route intravenous; settings: in vivo, read-out: Vdss
[37] = Plasma protein binding in dog; assay type: ADME, cell-free, Canis lupus familiaris; settings: read-out: PPB (converted)
[38] = Intrinsic clearance in monkey liver microsomes; assay type: ADME, Macaca mulatta, Microsome; settings: rhesus monkey
[39] = Half life in Beagle dog at 2.6 mg/kg, iv; assay type: ADME, organism-based, Canis lupus familiaris; design: dose 2.6 mg/kg, route intravenous; settings: in vivo
[40] = Plasma protein binding in rat; assay type: ADME, cell-free; settings: read-out: PPB (converted)
[41] = Half life in Sprague-Dawley rat at 2.9 mg/kg, iv; assay type: ADME, organism-based; design: dose 2.9 mg/kg, route intravenous; settings: in vivo
[42] = system: Haemophilus influenzae; test: Antibacterial activity against Haemophilus influenzae Q1 after 18 to 24 hrs by broth microdilution technique; assay type: functional

Chain of Voltage-gated inwardly rectifying potassium channel KCNH2 (Q12809 whole entry): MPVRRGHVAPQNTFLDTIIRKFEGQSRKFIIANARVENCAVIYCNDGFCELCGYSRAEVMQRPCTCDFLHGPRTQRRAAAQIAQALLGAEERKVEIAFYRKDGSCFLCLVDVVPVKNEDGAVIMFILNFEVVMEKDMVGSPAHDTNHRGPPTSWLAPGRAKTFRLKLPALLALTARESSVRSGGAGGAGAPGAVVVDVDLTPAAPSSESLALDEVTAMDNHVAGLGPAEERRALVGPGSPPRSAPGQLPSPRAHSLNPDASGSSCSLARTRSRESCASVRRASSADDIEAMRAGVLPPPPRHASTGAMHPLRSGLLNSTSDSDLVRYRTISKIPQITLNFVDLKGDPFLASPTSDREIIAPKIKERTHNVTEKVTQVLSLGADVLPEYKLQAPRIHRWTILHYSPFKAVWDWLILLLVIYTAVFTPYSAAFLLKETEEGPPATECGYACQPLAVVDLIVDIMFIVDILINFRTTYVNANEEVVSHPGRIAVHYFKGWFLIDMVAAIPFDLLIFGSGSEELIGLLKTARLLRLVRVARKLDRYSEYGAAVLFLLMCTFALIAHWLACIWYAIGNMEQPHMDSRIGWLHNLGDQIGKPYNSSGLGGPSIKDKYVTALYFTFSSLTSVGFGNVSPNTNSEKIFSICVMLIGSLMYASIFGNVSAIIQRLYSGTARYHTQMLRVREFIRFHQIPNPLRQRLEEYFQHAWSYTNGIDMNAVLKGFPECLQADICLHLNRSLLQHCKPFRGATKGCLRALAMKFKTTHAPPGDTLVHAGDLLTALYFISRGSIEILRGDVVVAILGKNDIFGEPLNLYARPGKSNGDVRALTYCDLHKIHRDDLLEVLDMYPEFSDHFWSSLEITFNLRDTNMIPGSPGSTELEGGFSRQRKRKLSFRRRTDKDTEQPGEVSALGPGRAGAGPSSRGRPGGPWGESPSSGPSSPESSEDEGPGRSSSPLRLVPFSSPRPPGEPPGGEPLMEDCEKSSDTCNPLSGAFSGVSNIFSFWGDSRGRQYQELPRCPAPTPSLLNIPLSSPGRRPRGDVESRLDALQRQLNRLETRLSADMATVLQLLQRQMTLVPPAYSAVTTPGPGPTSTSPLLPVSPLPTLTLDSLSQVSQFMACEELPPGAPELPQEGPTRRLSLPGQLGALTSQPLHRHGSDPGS

SMILES: COc1cc(F)c2nccc(NC(=O)[C@]3(O)CC[C@@H](NCc4cc5c(cn4)OCCO5)CC3)c2c1
- IC50 [1]: 0.009 µg/mL (≈ 0.0187 µM)
- MIC [2]: 0.06 µg/mL (≈ 0.124 µM)
- IC50 [3]: 113 µM
- MIC [4]: 0.125 µg/mL (≈ 0.259 µM)
- MIC [5]: 1 µg/mL (≈ 2.07 µM)

SMILES: COc1ccc2nccc(NC(=O)[C@]3(O)CC[C@@H](NCc4cc5c(cn4)OCCO5)CC3)c2n1
- clearance [6]: 41.1 mL/min/kg
- Vd [7]: 2.41 L/kg
- AUC [8]: 190 ng·h/mL
- Activity [9]: Active
- Vd [10]: 4.1 L/kg
- IC50 [1]: 0.013 µg/mL (≈ 0.0279 µM)
- CL [11]: 3%
- CL [12]: 3%
- QH [13]: 73%
- QH [14]: 73%
- CL [15]: 3%
- MRT [16]: 9.8 h
- bioavailability [17]: 18%
- CL [18]: 2.2 mL/min/g
- bioavailability [19]: 63%
- Drug metabolism [20]: Active
- MIC [2]: 0.01 µg/mL (≈ 0.0215 µM)
- CL [21]: 0.8 mL/min/g
- AUC [22]: 340 ng·h/mL
- bioavailability [23]: 9%
- MRT [24]: 6.4 h
- fraction unbound [25]: 0.165
- MRT [26]: 2.9 h
- Drug metabolism [27]: Active
- AUC [28]: 5700 ng·h/mL
- Drug metabolism [29]: Active
- half-life [30]: 108 min
- clearance [31]: 8.4 mL/min/kg
- QH [32]: 73%
- fraction unbound [33]: 0.274
- clearance [34]: 34.2 mL/min/kg
- log10cfu [35]: 2
- Vd [36]: 3.7 L/kg
- fraction unbound [37]: 0.263
- CL [38]: 2.6 mL/min/g
- MIC [4]: 0.125 µg/mL (≈ 0.269 µM)
- half-life [39]: 378 min
- fraction unbound [40]: 0.268
- half-life [41]: 60 min
- MIC [5]: 0.5 µg/mL (≈ 1.07 µM)

SMILES: COc1ccc2nccc(NC(=O)[C@H]3CC[C@H](NCc4cc5c(cn4)OCCO5)CC3)c2n1
- IC50 [1]: 0.008 µg/mL (≈ 0.0178 µM)
- MIC [2]: 0.01 µg/mL (≈ 0.0222 µM)
- IC50 [3]: 29 µM
- MIC [4]: 0.03 µg/mL (≈ 0.0667 µM)
- MIC [5]: 0.25 µg/mL (≈ 0.556 µM)

SMILES: N#Cc1ccc2cccc(NC(=O)[C@]3(O)CC[C@@H](NCc4cc5c(cn4)OCCO5)CC3)c2n1
- IC50 [1]: 0.002 µg/mL (≈ 0.00435 µM)
- MIC [2]: 0.03 µg/mL (≈ 0.0653 µM)
- MIC [4]: 0.06 µg/mL (≈ 0.131 µM)
- MIC [5]: 0.5 µg/mL (≈ 1.09 µM)

SMILES: COc1ccc2nccc(NC(=O)[C@]3(O)CC[C@@H](NCc4ccc5c(c4)OCCO5)CC3)c2n1
- IC50 [1]: 0.004 µg/mL (≈ 0.00861 µM)
- MIC [2]: 0.03 µg/mL (≈ 0.0646 µM)
- IC50 [3]: 25 µM
- MIC [4]: 0.03 µg/mL (≈ 0.0646 µM)
- MIC [5]: 0.5 µg/mL (≈ 1.08 µM)

SMILES: COc1ccc2nccc(NC(=O)[C@H]3CC[C@H](NCc4ccc5c(c4)OCCO5)CC3)c2n1
- IC50 [1]: 0.003 µg/mL (≈ 0.00669 µM)
- MIC [2]: 0.03 µg/mL (≈ 0.0669 µM)
- MIC [4]: 0.125 µg/mL (≈ 0.279 µM)
- MIC [5]: 1 µg/mL (≈ 2.23 µM)

SMILES: Cc1ccc2cccc(NC(=O)[C@H]3CC[C@H](NCc4cc5c(cn4)OCCO5)CC3)c2n1
- IC50 [1]: 0.069 µg/mL (≈ 0.16 µM)
- MIC [2]: 0.125 µg/mL (≈ 0.289 µM)
- MIC [4]: 0.25 µg/mL (≈ 0.578 µM)
- MIC [5]: 2 µg/mL (≈ 4.62 µM)

SMILES: COc1ccc2nccc(NC(=O)[C@]3(O)CC[C@@H](NCc4cc5c(cn4)OCCO5)CC3)c2c1
- IC50 [1]: 0.01 µg/mL (≈ 0.0215 µM)
- MIC [2]: 0.125 µg/mL (≈ 0.269 µM)
- IC50 [3]: 200 µM
- MIC [4]: 0.125 µg/mL (≈ 0.269 µM)
- MIC [5]: 1 µg/mL (≈ 2.15 µM)

SMILES: N#Cc1ccc2cccc(NC(=O)[C@@H]3CC[C@@H](NCc4cc5c(cn4)OCCO5)[C@@H](O)C3)c2n1
- IC50 [1]: 0.001 µg/mL (≈ 0.00218 µM)
- MIC [2]: 0.01 µg/mL (≈ 0.0218 µM)
- MIC [4]: 0.03 µg/mL (≈ 0.0653 µM)
- MIC [5]: 0.5 µg/mL (≈ 1.09 µM)

SMILES: CO[C@@H]1C[C@H](C(=O)Nc2cccc3ccc(C)nc23)CC[C@H]1NCc1cc2c(cn1)OCCO2
- IC50 [1]: 0.102 µg/mL (≈ 0.221 µM)
- MIC [2]: 0.5 µg/mL (≈ 1.08 µM)
- MIC [4]: 0.5 µg/mL (≈ 1.08 µM)
- MIC [5]: 16 µg/mL (≈ 34.6 µM)

SMILES: COc1ccc2nccc(NC(=O)[C@H]3CC[C@H](NCc4ccc5c(c4)OCCO5)CC3)c2c1
- IC50 [1]: 0.017 µg/mL (≈ 0.038 µM)
- MIC [2]: 0.03 µg/mL (≈ 0.067 µM)
- MIC [42]: 2 µg/mL (≈ 4.47 µM)
- IC50 [3]: 25 µM
- MIC [4]: 0.25 µg/mL (≈ 0.559 µM)

SMILES: Cc1ccc2cccc(NC(=O)[C@]3(O)CC[C@@H](NCc4cc5c(cn4)OCCO5)CC3)c2n1
- IC50 [1]: 0.05 µg/mL (≈ 0.111 µM)
- MIC [2]: 0.125 µg/mL (≈ 0.279 µM)
- IC50 [3]: 2 µM
- MIC [4]: 0.125 µg/mL (≈ 0.279 µM)
- MIC [5]: 2 µg/mL (≈ 4.46 µM)

SMILES: COc1ccc2nccc(NC(=O)[C@]3(O)CC[C@@H](NCc4cnc5c(c4)OCCO5)CC3)c2n1
- IC50 [1]: 0.01 µg/mL (≈ 0.0215 µM)
- MIC [2]: 0.03 µg/mL (≈ 0.0644 µM)
- MIC [4]: 0.06 µg/mL (≈ 0.129 µM)
- MIC [5]: 2 µg/mL (≈ 4.3 µM)
